How the values were obtained:
Format in all cases: functional, cell-based
Details in all cases: Homo sapiens
HCT-8 = assay: Cytotoxicity against HCT8 colon carcinoma cell
Bel-7402 = assay: Cytotoxicity against Bel7402 liver carcinoma cell
BGC-823 = assay: Cytotoxicity against BGC823 gastric carcinoma cell

Row | Compound | IC50 (HCT-8) | IC50 (Bel-7402) | IC50 (BGC-823)
1 | COc1cc2c(cc1OC)[C@@H]1[C@@H]3Cc4cc(OC)c(OC)cc4[C@H](COC(=O)c4ccccc4)N3[C@@H](C#N)[C@H](C2)N1C | 440 nM | 590 nM | 15 nM
2 | COc1cc2c(cc1OC)[C@@H]1[C@@H]3Cc4cc(OC)c(OC)cc4[C@H](COC(=O)c4cnccn4)N3[C@@H](C#N)[C@H](C2)N1C | 3480 nM | 3500 nM | 1690 nM
3 | COc1cc2c(cc1OC)[C@@H]1[C@@H]3Cc4cc(OC)c(OC)cc4[C@H](COC(=O)c4cccnc4)N3[C@@H](C#N)[C@H](C2)N1C | 3280 nM | 2100 nM | 1020 nM
4 | COc1cc2c(cc1OC)[C@@H]1[C@@H]3Cc4cc(OC)c(OC)cc4[C@H](CNC(=O)c4ccccc4)N3[C@@H](C#N)[C@H](C2)N1C | 1350 nM | 1350 nM | 1400 nM
5 | COc1cc2c(cc1OC)[C@@H]1[C@@H]3Cc4cc(OC)c(OC)cc4[C@H](CNC(=O)c4ccccc4Cl)N3[C@@H](C#N)[C@H](C2)N1C | 1850 nM | 1870 nM | 1910 nM
6 | COc1cc2c(cc1OC)[C@@H]1[C@@H]3Cc4cc(OC)c(OC)cc4[C@H](COC(C)=O)N3[C@@H](C#N)[C@H](C2)N1C | 310 nM | 340 nM | 150 nM
7 | COc1cc2c(cc1OC)[C@@H]1[C@@H]3Cc4cc(OC)c(OC)cc4[C@H](COC(=O)c4cccc(Cl)c4)N3[C@@H](C#N)[C@H](C2)N1C | 100 nM | 1120 nM | 29 nM
8 | COc1cc2c(cc1OC)[C@@H]1[C@@H]3Cc4cc(OC)c(OC)cc4[C@H](COC(=O)c4cncc(Br)c4)N3[C@@H](C#N)[C@H](C2)N1C | 1170 nM | 1490 nM | 450 nM
9 | COc1cc2c(cc1OC)[C@@H]1[C@@H]3Cc4cc(OC)c(OC)cc4[C@H](COC(=O)CCCc4ccccc4)N3[C@@H](C#N)[C@H](C2)N1C | 830 nM | 120 nM | 750 nM
10 | COc1cc2c(cc1OC)[C@@H]1[C@@H]3Cc4cc(OC)c(OC)cc4[C@H](CNC(=O)/C=C/c4ccccc4)N3[C@@H](C#N)[C@H](C2)N1C | 1780 nM | 1450 nM | 1310 nM
11 | COc1cc2c(cc1OC)[C@@H]1[C@@H]3Cc4cc(OC)c(OC)cc4[C@H](COC(=O)c4cc5ccccc5[nH]4)N3[C@@H](C#N)[C@H](C2)N1C | 620 nM | 850 nM | 10 nM
12 | COc1cc2c(cc1OC)[C@@H]1[C@@H]3Cc4cc(OC)c(OC)cc4[C@H](COC(=O)/C=C/c4ccccc4)N3[C@@H](C#N)[C@H](C2)N1C | 37 nM | 680 nM | 58 nM
13 | COc1cc2c(cc1OC)[C@@H]1[C@@H]3Cc4cc(OC)c(OC)cc4[C@H](COC(=O)c4cccs4)N3[C@@H](C#N)[C@H](C2)N1C | 1600 nM | 820 nM | 210 nM
14 | COc1cc2c(cc1OC)[C@@H]1[C@@H]3Cc4cc(OC)c(OC)cc4[C@H](COC(=O)c4cccc5ccccc45)N3[C@@H](C#N)[C@H](C2)N1C | 340 nM | 710 nM | 6 nM
15 | COc1cc2c(cc1OC)[C@@H]1[C@@H]3Cc4cc(OC)c(OC)cc4[C@H](CNC(=O)c4cccs4)N3[C@@H](C#N)[C@H](C2)N1C | 1280 nM | 790 nM | 1160 nM
16 | COc1cc2c(cc1OC)[C@@H]1[C@@H]3Cc4cc(OC)c(OC)cc4[C@H](COC(=O)Cc4ccc(F)cc4)N3[C@@H](C#N)[C@H](C2)N1C | 240 nM | 200 nM | 200 nM
17 | COc1cc2c(cc1OC)[C@@H]1[C@@H]3Cc4cc(OC)c(OC)cc4[C@H](CNC(=O)c4ccco4)N3[C@@H](C#N)[C@H](C2)N1C | 1380 nM | 1200 nM | 1320 nM
18 | C=CC(=O)NC[C@H]1c2cc(OC)c(OC)cc2C[C@H]2[C@H]3c4cc(OC)c(OC)cc4C[C@@H]([C@H](C#N)N12)N3C | 2710 nM | 1870 nM | 2000 nM
19 | COc1cc2c(cc1OC)[C@@H]1[C@@H]3Cc4cc(OC)c(OC)cc4[C@H](COC(=O)c4ccco4)N3[C@@H](C#N)[C@H](C2)N1C | 690 nM | 750 nM | 580 nM
20 | COc1ccc(CC(=O)OC[C@H]2c3cc(OC)c(OC)cc3C[C@H]3[C@H]4c5cc(OC)c(OC)cc5C[C@@H]([C@H](C#N)N23)N4C)cc1 | 3560 nM | 3010 nM | 1140 nM
21 | COc1cc2c(cc1OC)[C@@H]1[C@@H]3Cc4cc(OC)c(OC)cc4[C@H](CNC(=O)c4cccc5ccccc45)N3[C@@H](C#N)[C@H](C2)N1C | 1720 nM | 2080 nM | 1860 nM
22 | COc1cc2c(cc1OC)[C@@H]1[C@@H]3Cc4cc(OC)c(OC)cc4[C@H](CNC(=O)c4ccc([N+](=O)[O-])cc4)N3[C@@H](C#N)[C@H](C2)N1C | 1230 nM | 1220 nM | 1370 nM
23 | COc1cc2c(cc1OC)[C@@H]1[C@@H]3Cc4cc(OC)c(OC)cc4[C@H](CNC(=O)c4cccc(Cl)c4)N3[C@@H](C#N)[C@H](C2)N1C | 1540 nM | 950 nM | 1010 nM
24 | CCC(=O)OC[C@H]1c2cc(OC)c(OC)cc2C[C@H]2[C@H]3c4cc(OC)c(OC)cc4C[C@@H]([C@H](C#N)N12)N3C | 300 nM | 110 nM | 150 nM
25 | C=CC(=O)OC[C@H]1c2cc(OC)c(OC)cc2C[C@H]2[C@H]3c4cc(OC)c(OC)cc4C[C@@H]([C@H](C#N)N12)N3C | 2140 nM | 760 nM | 460 nM
26 | COc1cc2c(cc1OC)[C@@H]1[C@@H]3Cc4cc(OC)c(OC)cc4[C@H](COC(=O)[C@H]4Cc5ccccc5CN4Cc4ccccc4)N3[C@@H](C#N)[C@H](C2)N1C | 1420 nM | 1690 nM | 360 nM
27 | COc1cc2c(cc1OC)[C@@H]1[C@@H]3Cc4cc(OC)c(OC)cc4[C@H](COC(=O)c4ccccn4)N3[C@@H](C#N)[C@H](C2)N1C | 5150 nM | 2020 nM | 1440 nM
